Results reported in patent publication US12357556B2, “Composition for improving hair health” (K18, Inc., priority 2018, dated 2025).
Residues, ends and D or L forms follow the SMILES beside them.

Target: T1, natural hair keratin (Hair Keratin KRTHB1 Basic, SEQ ID NO: 7) (Homo sapiens, UniProt Q14533)
T1 sequence (Q14533 304-505): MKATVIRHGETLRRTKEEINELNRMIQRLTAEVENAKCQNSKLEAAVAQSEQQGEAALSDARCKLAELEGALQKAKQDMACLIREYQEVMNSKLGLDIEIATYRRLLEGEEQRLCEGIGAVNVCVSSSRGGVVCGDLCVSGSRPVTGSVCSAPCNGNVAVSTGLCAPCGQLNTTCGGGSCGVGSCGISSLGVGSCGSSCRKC
Assay: SPRi binding affinity of peptides to keratin printed on a sensor chip
Conditions: for kon / koff: SPRi, 4° C., kinetic analysis with BIAevaluation 4.1; for kon: read-out: Ka (association rate constant); for koff: read-out: Kd (dissociation rate constant); for Affinity ranking: rank by KD, the lower the KD the more affinity to hair keratin
Experimental: Affinity of Aquis peptides with natural hair keratin were tested. A third peptide was also tested with the sequence GGVCGPSPPCITT (SEQ ID NO: 6) known as KP developed by Khairpep as a control. KP has been shown in previous patent and publications to penetrate the hair shaft, bind to keratin and improve hair mechanical properties. Various concentrations of Keratin dissolved in water were manually printed onto the bare gold coated (thickness 47 nm) PlexArray Nanocapture Sensor Chip (Plexera Bioscience, Seattle, WA, US) at 40% humidity. Each concentration was printed in replicate, and each spot contained 0.2 microliters of […] solution. The chip was incubated in 80% humidity at 4° C. for overnight, and rinsed with 10×PBST for 10 min, 1×PBST for 10 min, and deionized water twice for 10 min. The chip was then blocked with 5% (w/v) non-fat milk in water overnight, and washed with 10×PBST for 10 min, 1×PBST for 10 min, and deionized water twice for 10 min before being dried under a stream of nitrogen prior to use. SPRi measurements were performed with PlexAray HT (Plexera Bioscience, Seattle, WA, US). Collimated light (660 nm) passes through the coupling prism, reflects off the SPR-active gold surface, and is received by the CCD camera. Buffers and samples were injected by a non-pulsatile piston pump into the 30 uL flowcell that was mounted on the coupling prim. Each measurement cycle contained four steps: washing with PBST running buffer at a constant rate of 2 uL/s to obtain a stable baseline, sample injection at 5 uL/s for binding, surface washing with PBST at 2 uL/s for 300 s, and regeneration with 0.5% (v/v) H3PO4 at 2 uL/s for 300 s. All the measurements were performed at 4° C. The signal changes after binding and washing (in AU) are recorded as the assay value. Selected protein-grafted regions in the SPR images were analyzed, and the average reflectivity variations of the chosen areas were plotted as a function of time. Real-time binding signals were recorded and analyzed by Data Analysis Module (DAM, Plexera Bioscience, Seattle, WA, US). Kinetic analysis was performed using BIAevaluation 4.1 software (Biacore, Inc.).
FIG. 1 to 3 show the binding affinity to keratin for each peptide tested. The lower the KD value is, the more affinity the peptide has to hair keratin.

kon	koff	affinity to hair keratin compared with the other peptides (comparison of Figures 1-3, in words)	Affinity ranking	SMILES
1310 M⁻¹ s⁻¹	0.000478 s⁻¹	has the most affinity to hair keratin	1	C[C@@H](O)[C@H](NC(=O)[C@H](CO)NC(=O)[C@H](CS)NC(=O)[C@H](CO)NC(=O)[C@@H]1CCCN1C(=O)[C@H](Cc1ccccc1)NC(=O)CNC(=O)[C@H](CS)NC(=O)[C@@H](N)Cc1ccccc1)C(=O)N[C@@H](CO)C(=O)NCC(=O)O [Aquis 1, FCGFPSCSTSG] (H-FCGFPSCSTSG-OH; N-terminus and C-terminus assumed)
8240 M⁻¹ s⁻¹	0.0206 s⁻¹		3	CC(C)C[C@H](NC(=O)[C@H](CCC(N)=O)NC(=O)[C@H](CS)NC(=O)[C@H](CS)NC(=O)[C@H](CO)NC(=O)[C@@H]1CCCN1C(=O)[C@@H]1CCCN1C(=O)[C@@H](NC(=O)[C@@H](N)CS)[C@@H](C)O)C(=O)N[C@@H](Cc1c[nH]cn1)C(=O)N[C@@H](Cc1c[nH]cn1)C(=O)N[C@@H](C)C(=O)O [Aquis 2, CTPPSCCQLHHA] (H-CTPPSCCQLHHA-OH; N-terminus and C-terminus assumed)
8500 M⁻¹ s⁻¹	0.000692 s⁻¹		2	CC[C@H](C)[C@H](NC(=O)[C@H](CS)NC(=O)[C@@H]1CCCN1C(=O)[C@@H]1CCCN1C(=O)[C@H](CO)NC(=O)[C@@H]1CCCN1C(=O)CNC(=O)[C@H](CS)NC(=O)[C@@H](NC(=O)CNC(=O)CN)C(C)C)C(=O)N[C@H](C(=O)N[C@H](C(=O)O)[C@@H](C)O)[C@@H](C)O [KP, GGVCGPSPPCITT, reference compound] (H-GGVCGPSPPCITT-OH; N-terminus and C-terminus assumed)
